Assay results reported in BindingDB's records for patent US10143681 (Merck Sharp & Dohme, 2018).

Biological target: Plasma kallikrein (Homo sapiens, UniProt P03952)
Test: Kallikrein Assay
Description: The effectiveness of a compound of the present invention as an inhibitor of Kallikrein can be determined using a relevant purified serine protease, and an appropriate synthetic substrate. The rate of hydrolysis of the chromogenic or fluorogenic substrate by the relevant serine protease was measured both in the absence and presence of compounds of the present invention. Assays were conducted at room temperature or at 37° C. […] A decrease in the rate of fluorescence change in the presence of inhibitor is indicative of enzyme inhibition. Such methods are known to one skilled in the art. […] Times required to achieve equilibration between enzyme and inhibitor were determined in control experiments. […] IC50 was determined by inflection point from a four parameter logistic curve fit. Ki was calculated using the Cheng Prusoff equation, Ki=IC50/(1+([S]/Km)).

Plasma kallikrein, sequence (P03952 20-390 limits assumed): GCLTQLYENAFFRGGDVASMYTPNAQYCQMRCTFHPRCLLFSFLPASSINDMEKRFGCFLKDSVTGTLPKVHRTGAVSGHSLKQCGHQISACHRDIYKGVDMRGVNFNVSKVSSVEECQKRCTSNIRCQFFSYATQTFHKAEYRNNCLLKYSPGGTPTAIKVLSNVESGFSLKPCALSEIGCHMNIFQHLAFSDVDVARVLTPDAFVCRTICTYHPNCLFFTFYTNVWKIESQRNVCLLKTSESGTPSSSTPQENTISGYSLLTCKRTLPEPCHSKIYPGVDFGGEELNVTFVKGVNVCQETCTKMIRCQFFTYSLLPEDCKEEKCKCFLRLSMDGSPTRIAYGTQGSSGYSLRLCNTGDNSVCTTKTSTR
Plasma kallikrein, sequence (P03952 391-638 limits assumed): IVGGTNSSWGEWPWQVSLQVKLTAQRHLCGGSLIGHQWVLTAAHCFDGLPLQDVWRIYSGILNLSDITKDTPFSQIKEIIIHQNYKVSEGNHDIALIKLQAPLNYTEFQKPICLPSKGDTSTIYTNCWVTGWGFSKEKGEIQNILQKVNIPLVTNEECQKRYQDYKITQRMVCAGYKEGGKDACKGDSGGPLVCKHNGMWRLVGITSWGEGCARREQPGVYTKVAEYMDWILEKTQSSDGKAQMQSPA

IC50: 0.042 µM
Structure (SMILES): COc1cc([C@@H](CC2CC2)C(=O)Nc2ccc(C(=O)O)cc2)[n+]([O-])cc1-c1c(C(F)F)ccc(Cl)c1F [US10143681, Example 69]
